Laboratory results from patent US20050137166A1, “Use of cooling agents to relieve mild ocular irritation and enhance comfort” (Alcon, Inc., priority 2003, published 2005).
Each block holds one compound with its values, some of them ahead of it.

Columns and labels:
[1] = system: eyes of human patients; test: Cooling sensation of compositions topically applied to the eyes of human patients; type: in vivo; conditions: for ability to produce a cooling sensation: human patients
Method: (§1) Compositions containing the cooling agents WS-3 and WS-23 in the vehicle described in Example 1 were prepared. The compositions were evaluated relative to the ability to produce a cooling sensation when topically applied to the eyes of human patients. The compositions were also evaluated with respect to the creation of ocular discomfort.

[2] = system: eyes of human patients; test: Creation of ocular discomfort after topical application to the eyes of human patients; type: in vivo
Method: as §1

[3] = system: mouth; conditions: versus menthol; cited from earlier work
[4] = system: skin; conditions: versus menthol; cited from earlier work
[5] = WS-3 at 2 ppm to 5 ppm in the vehicle of Example 1, topical ocular
[6] = ophthalmic composition, ocular cooling
[7] = WS-23 at 10 ppm to 20 ppm in the vehicle of Example 1, topical ocular

Structure (SMILES): CCNC(=O)C1CC(C)CCC1C(C)C (centres unmarked) [WS-3, Cyclohexanecarboxamide, N-ethyl-5-methyl-2-(1-methylethyl)]
ability to produce a cooling sensation [1, 5]: refreshing
optimal concentration [1, 6]: 1 to 5 PPM
ocular discomfort / tolerability [2, 5]: comfortable and well tolerated

ocular discomfort [2, 7]: comfortable
Structure (SMILES): CNC(=O)C(C)(C(C)C)C(C)C [WS-23, N,2,3-Trimethyl-2-isopropylbutamide]
ability to produce a cooling sensation [1, 7]: produced a cooling effect
concentration at which most effective [1, 6]: 10 to 20 ppm

Structure (SMILES): CC1=C(N2CCCC2)C(=O)OC1 [4-methyl-3-(1-pyrrolididinyl)-2[5H]-furanone]
cooling power relative to menthol, in the mouth [3]: thirty-five
cooling power relative to menthol, on the skin [4]: over 500 times
